Measured values as given in patent US7659296B2, “Vitamin D receptor modulators” (Eli Lilly and Company, priority 2004, dated 2010).

Assays:
Assay type in all cases: cell-based
[1] = tested on: KERtr cells (Human skin keratinocyte); test: Keratinocyte Proliferation Assay; details: BrdU incorporation, 72 h, read-out: Kera. Prolif. IC50
Procedure: The Keratinocyte Proliferation Assay
This Assay is indicative for the treatment of psoriasis. An acceptable test result is IC50 value of less than or equal to 300 nM. Preferred assay results are IC50 values of less than 100 nM.
KERtr cells (Human skin keratinocyte) are transformed with a retrovirus vector, obtained from ATCC, then are plated in 96-well flat-bottomed plates (3000 cells/well) in 100 μl keratinocyte serum free medium supplemented with bovine pituitary extract in the absence of EGF (Life Technologies, Rockville, Md.) and are incubated at 37° C. for two days. The cells are treated with various concentrations of VDR ligands (ten-fold serial dilution from 10,000 nM to 0.1 nM in triplicate), dissolved in 100 μl keratinocyte serum free medium supplemented with bovine pituitary extract in the absence of EGF and are incubated at 37° C. for 72 h. BrdU (5-bromo-2′-deoxyuridine) incorporation is analyzed as a measure of DNA replication (Cell proliferation ELISA kit, Roche Diagnostics, Indianapolis, Ind.) and absorbance is measured at 405 nm. Potency values (IC50) values were determined as the concentration (nM) of compound that elicited a half-maximal response.

RXR-VDR heterodimer = target: T1, RXR-VDR heterodimer (Homo sapiens, UniProt P11473); test: RXR-VDR heterodimerization (SaOS-2 cells) test; details: Gal-4-RXR-DEF and VP16-VDR-LBD, luciferase reporter
T1 construct: add the Gal-4-RXR-DEF and VP16-VDR-LBD; expressed in transfected cells; host or cells: SaOS-2 cells
T1 sequence (P11473 127-423 limits assumed): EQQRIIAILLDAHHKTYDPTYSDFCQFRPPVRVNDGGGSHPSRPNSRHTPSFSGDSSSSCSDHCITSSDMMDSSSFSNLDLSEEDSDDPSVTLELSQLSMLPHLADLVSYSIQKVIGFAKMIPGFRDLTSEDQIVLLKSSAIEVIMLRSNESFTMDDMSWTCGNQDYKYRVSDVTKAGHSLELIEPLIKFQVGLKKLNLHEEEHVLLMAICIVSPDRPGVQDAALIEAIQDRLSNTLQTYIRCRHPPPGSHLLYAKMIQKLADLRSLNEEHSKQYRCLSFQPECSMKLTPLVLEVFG
T1 sequence (P19793 201-462 partner limits assumed): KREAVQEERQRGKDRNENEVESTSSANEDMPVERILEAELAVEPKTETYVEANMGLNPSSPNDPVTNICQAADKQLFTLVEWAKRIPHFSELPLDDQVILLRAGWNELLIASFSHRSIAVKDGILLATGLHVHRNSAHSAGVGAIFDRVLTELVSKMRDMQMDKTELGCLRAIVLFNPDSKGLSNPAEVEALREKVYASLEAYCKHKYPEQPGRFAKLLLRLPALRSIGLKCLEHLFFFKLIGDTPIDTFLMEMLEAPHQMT
Procedure: 1. The RXR-VDR heterodimerAssay:
This assay provides the VDR activity of a test compound. It is desirable to have low EC50 values for a compound in this assay. […] Desired assay results are EC50 values less than or equal to 600 nM. Preferred assay results are less than 250 nM, and most preferably less than 150 nM.
(1) Materials and Method for RXR-VDR Heterodimerization Assay Transfection Method: Reagents: FuGENE 6 Transfection Reagent (Roche Cat # 1 814 443); Growth Media: D-MEM High Glucose (Gibco BRL Cat # 11054-020), 10% heat inactivated FBS (Gibco BRL Cat # 10092-147), 1% antibiotic-antimycotic (Ab-Am); (Gibco BRL Cat # 15240-062). Cells: Grow SaOS-2 cells in T-150 cm^2 culture flasks in growth media keeping the density at 5-6×10^5 cells/ml. Passage cells 1:3 twice a week. Add Trypsin EDTA (Gibco BRL Cat # 25300-020) and incubate. Resuspend cells in plating media and transfer into growth media. Wash Media: HBSS Low Glucose Without Phenol Red (Gibco BRL Cat # 14175-095), 1% Ab-Am. Plating Media: D-MEM Low Glucose Without Phenol Red (Gibco BRL Cat # 11054-020), 1% Ab-Am; D-MEM; 10% Stripped FBS (Hyclone Cat# SH30068.03 Lot # AHM9371). Transfection/Treatment Media: D-MEM Low Glucose Without Phenol Red only; T-150 cm^2 culture flask: Use Corning Coastar T-150 cm^2 culture flask (Cat #430825) to grow the cells. Luciferase Assay Reagent: Use Steady-Glo Luciferase Reagent from Promega (Cat # E2550) Consists of: E2533 Assay Substrate, lypholized product and E2543 Assay Buffer. Thaw at room temperature and store. Cell Harvesting/Count: Aspirate media from culture flask, rinse cells with HBSS and aspirate. Add trypsin and incubate. When cells appear detached, resuspend cells in growth media. Transfer into a new flask with fresh growth media for passaging the cells. Plate 96 well plates and two extra plates. Mix the cell suspension using pipette. To count the cells using a Hematocytometer. Plate seeding: Use plating media 10% Stripped FBS in D-MEM Low Glucose, without Phenol Red, 1% Ab-Am. Plate 14 plates @ 165 μl/well. In sterile flask add cell suspension to plating media and mix. Add cells/well. Place the cells in the incubator. Cells should be about 75% confluent prior to transfection. DAY 2: Transfection: Step 1, DNA and Media: Add plain DMEM media to tubes for mixing the DNA; add the Reporter gene pFR-LUC; and add the Gal-4-RXR-DEF and VP16-VDR-LBD. Step 2, FuGENE and Media: Prepare plain DMEM media in a tubes for mixing FuGENE, add FuGENE 6 Transfection Reagent, and incubate. Step 3, FuGENE, DNA and Media Complex: Add FuGENE Media complex from step 2 to DNA Media complex from step 1 and incubate. Step 4, FuGENE, DNA and Media Complex to 96 well plate: Add FuGENE-DNA-Media complex from step 3 to each plate. Incubate. Day 3: Dosing: Treatment preparation. Allow for transfection time. Make a stock solution of the compounds in DMSO and vortex until all the compounds have been dissolved. Further dilute in D-MEM (Low Glucose—without Phenol Red) Add compounds in quadruplicate to give desired final volume then incubate. Day 4: Luciferase Assay: Read the plates after drug treatment. Remove part of media from all the wells and leave remainder. Add Steady-Glo Luciferase Reagent mixture/wells and incubate. Count each well using a Luminescence counter, Top Count NXT by Packard preferably set a delay between plates to reduce the background.

rat osteocalcin promoter = test: OCN (osteocalcin) Promoter Assay; details: RG-15 (ROS17/2.8) cells, luciferase reporter, 48 h treatment
Procedure: The OCN (osteocalcin) Promoter Assay
The OCN Promoter Assay is an indicator and marker for osteoporosis. Desired assay results are EC50 less than or equal to 325 nM. Preferred assay results are less than 50 nM.
The activation of osteocalcin by VDR ligands is evaluated in a rat osteoblast-like cell line RG-15 (ROS17/2.8) stably expressing rat osteocalcin promoter fused with luciferase reporter gene. The stable cell lines are established as reported before (Activation of Osteocalcin Transcription involves interaction of protein kinase A- and Protein kinase C-dependent pathways. Boguslawski, G., Hale, L. V., Yu, X.-P., Miles, R. R., Onyia, J. E., Santerre R. F., Chandrasekhar, S. J. Biol. Chem. 275, 999-1006, 2000). Confluent RG-15 cells maintained in DMEM/F-12 medium (3:1) containing 5% FBS, 300 μg/ml G418 and at 37° C. under 5% CO2/95% air atmosphere are trypsinized (0.25% trypsin) and plated into white opaque 96-well cell culture plates (25000 cells/well). After 24 h, cells (in DMEM/F-12 medium+2% FBS) are treated with various concentrations of compounds, dissolved in DMSO. The final DMSO concentration remains at 0.01% (v/v). After 48 h treatment, the medium is removed, cells are lysed with 50 μl of lysis buffer (From Luciferase reporter assay system, Roche Diagnostics, Indianapolis, Ind.) and then assayed for luciferase activity using the Luciferase Reporter Gene Assay kit from Boehringer Mannheim as per manufacturer's specifications.

Structure (SMILES) | IC50 [1] [nM] | EC50 (RXR-VDR heterodimer) [nM] | EC50 (rat osteocalcin promoter) [nM]
CCC(CC)(c1ccc(OCC(=O)C(C)(C)C)c(C)c1)c1nc2cc(C(N)=O)ccc2o1 [Ex 7, 2-{1-[4-(3,3-Dimethyl-2-oxo-butoxy)-3-methyl-phenyl]-1-ethyl-propyl}-benzooxazole-5-carboxylic acid amide] | > 1000 | 177 | –
CCC(CC)(c1ccc(OCC(=O)C(C)(C)C)c(C)c1)c1nc2cc(C(=O)N(C)C)ccc2o1 [Ex 8, 2-{1-[4-(3,3-Dimethyl-2-oxo-butoxy)-3-methyl-phenyl]-1-ethyl-propyl}-benzooxazole-5-carboxylic acid dimethylamide] | > 1000 | 117 | –
CCC(CC)(c1ccc(OCC(=O)C(C)(C)C)c(C)c1)c1nc2cc(C(=O)NCC(=O)O)ccc2o1 [Ex 9, [(2-{1-[4-(3,3-Dimethyl-2-oxo-butoxy)-3-methyl-phenyl]-1-ethyl-propyl}-benzooxazole-5-carbonyl)-amino]-acetic acid] | > 1000 | 150 | –
CCC(CC)(c1ccc(OCC(=O)C(C)(C)C)c(C)c1)c1nc2ccc(C(=O)O)cc2o1 [Ex. 1, 2-{1-[4-(3,3-dimethyl-2-oxo-butoxy)-3-methyl-phenyl]-1-ethyl-propyl}-benzooxazole-6-carboxylic acid] | – | 1120 | 376
CCC(CC)(c1ccc(OCC(=O)C(C)(C)C)c(C)c1)c1nc2ccc(C(N)=O)cc2o1 [Ex. 2, 2-{1-[4-(3,3-Dimethyl-2-oxo-butoxy)-3-methyl-phenyl]-1-ethyl-propyl}-benzooxazole-6-carboxylic acid amide] | > 1000 | 73 | 289
CCC(CC)(c1ccc(OCC(=O)C(C)(C)C)c(C)c1)c1nc2ccc(C(=O)N(C)C)cc2o1 [Ex. 3, 2-{1-[4-(3,3-Dimethyl-2-oxo-butoxy)-3-methyl-phenyl]-1-ethyl-propyl}-benzooxazole-6-carboxylic acid dimethylamide] | – | 701 | 1640
CCC(CC)(c1ccc(OCC(=O)C(C)(C)C)c(C)c1)c1nc2ccc(C(=O)NCC(=O)O)cc2o1 [Ex. 4, [(2-{1-[4-(3,3-dimethyl-2-oxo-butoxy)-3-methyl-phenyl]-1-ethyl-propyl}-benzooxazole-6-carbonyl)-amino]-acetic acid] | – | 700 | 1170
CCC(CC)(c1ccc(OCC(=O)C(C)(C)C)c(C)c1)c1nc2cc(C(=O)O)ccc2o1 [Ex. 5, 2-{1-[4-(3,3-Dimethyl-2-oxo-butoxy)-3-methyl-phenyl]-1-ethyl-propyl}-benzooxazole-5-carboxylic acid] | > 1000 | 37 | 8
CCC(CC)(c1ccc(OCC(O)C(C)(C)C)c(C)c1)c1nc2cc(C(=O)O)ccc2o1 (centres unmarked) [Ex. 6, 2-{1-Ethyl-1-[4-(2-hydroxy-3,3-dimethyl-butoxy)-3-methyl-phenyl]-propyl}-benzooxazole-5-carboxylic acid] | 36 | 5 | –
